Experimental data published in patent US11566007B2, “Ras inhibitors” (Revolution Medicines, Inc., priority 2019, dated 2023).

test system: NCI-H358 (K-Ras G12C); assay: CellTiter-Glo cell viability assay, NCI-H358; assay type: cell-based, human; conditions: Homo sapiens, NCI-H358, 120 h, NCI-H358, 5-day treatment; class symbols; read-out: Additional H358 Cell Viability assay data (K-Ras G12C, IC50)
Outline: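 Cells seeded, compound added directly, 5-day exposure. Plates to RT ~30 min, CellTiter-Glo luminescence read. Normalized to DMSO avg (x100); 4-parameter logistic fit.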

`CCn1c(-c2cccnc2[C@H](C)OC)c2c3cc(ccc31)C1=CCCN(C1)C[C@H](NC(=O)[C@@H](COC1CN(C(=O)C#CC(C)(C)N(C)C)C1)C(C)C)C(=O)N1CCC[C@H](N1)C(=O)OCC(C)(C)C2` (atropisomer, axis not shown) [Example A663, (2R)-2-(((1-(4-(dimethylamino)-4-methylpent-2-ynoyl)405yridine405-3-yl)oxy)methyl)-N-((6^3S,4S)-1^1-ethyl-1^2-(2-((S)-1-methoxyethyl)405yridine-3-yl)-10,10-dimethyl-5,7-dioxo-2^1,2^2,2^3,2^6,6^1,6^2,6^3,6^4,6^5,6^6-decahydro-1^1H-8-oxa-1(5,3)-indola-6(1,3)-pyridazina-2(5,1)-pyridinacycloundecaphane-4-yl)-3-methylbutanamide] and `CCn1c(-c2cccnc2[C@H](C)OC)c2c3cc(ccc31)-c1nc(co1)C[C@H](NC(=O)[C@@H](COC1CN(C(=O)C#CC(C)(C)N(C)C)C1)C(C)C)C(=O)N1CCC[C@H](N1)C(=O)OCC(C)(C)C2` (atropisomer, axis not shown) [Example A675, (2R)-2-(((1-(4-(dimethylamino)-4-methylpent-2-ynoyl)azetidin-3-yl)oxy)methyl)-N-((6^3S,4S,Z)-1^1-ethyl-1^2-(2-((S)-1-methoxyethyl)pyridin-3-yl)-10,10-dimethyl-5,7-dioxo-6^1,6^2,6^3,6^4,6^5,6^6-hexahydro-1^1H-8-oxa-2(2,4)-oxazola-1(5,3)-indola-6(1,3)-pyridazinacycloundecaphane-4-yl)-3-methylbutanamide] cannot be ordered by IC50: < 10 nM for the first, < 10 nM for the second.

First: CCn1c(-c2cccnc2[C@H](C)OC)c2c3cc(ccc31)-c1csc(n1)C[C@H](NC(=O)[C@H](C(C)C)N(C)C(=O)N1CCN(C(=O)/C=C/CN3CCOCC3)C3(CC3)C1)C(=O)N1CCC[C@H](N1)C(=O)OCC(C)(C)C2 (atropisomer, axis not shown) [Example A665]
Second: CCn1c(-c2cccnc2[C@H](C)OC)c2c3cc(ccc31)-c1csc(n1)C[C@H](NC(=O)[C@H](C(C)C)N(C)C(=O)N1CCC3(CC1)CN(C(=O)/C=C/CN1CCOCC1)C3)C(=O)N1CCC[C@H](N1)C(=O)OCC(C)(C)C2 (atropisomer, axis not shown) [Example A669]
The IC50 of the first is lower: < 10 nM for the first, 10 to 100 nM for the second.

`CCn1c(-c2cccnc2[C@H](C)OC)c2c3cc(ccc31)-c1csc(n1)C[C@H](NC(=O)[C@H](C(C)C)N(C)C(=O)N1CCC3(CC1)CN(C(=O)/C=C/CN1CCCCC1)C3)C(=O)N1CCC[C@H](N1)C(=O)OCC(C)(C)C2` (atropisomer, axis not shown) [Example A670] and `C/C=C/C(=O)N1CC2(CCN(C(=O)N(C)[C@H](C(=O)N[C@H]3Cc4nc(cs4)-c4ccc5c(c4)c(c(-c4cccnc4[C@H](C)OC)n5CC)CC(C)(C)COC(=O)[C@@H]4CCCN(N4)C3=O)C(C)C)CC2)C1` (atropisomer, axis not shown) [Example A671] fall in the same range of IC50: 10 to 100 nM for the first, 10 to 100 nM for the second.

Compared with `C=CC(=O)N1CCN(C(=O)N(C)[C@H](C(=O)N[C@H]2Cc3nc(cs3)-c3ccc4c(c3)c(c(-c3cccnc3[C@H](C)OC)n4CC(F)(F)F)CC(C)(C)COC(=O)[C@@H]3CCCN(N3)C2=O)C(C)C)CC12CC2` (atropisomer, axis not shown) [Example A679], `C=CC(=O)N1CCC(F)(C(=O)N(C)[C@H](C(=O)N[C@H]2Cc3nc(cs3)-c3ccc4c(c3)c(c(-c3cccnc3[C@H](C)OC)n4CC)CC(C)(C)COC(=O)[C@@H]3CCCN(N3)C2=O)C(C)C)CC1` (atropisomer, axis not shown) [Example A700] is lower in IC50: 10 to 100 nM for the first, < 10 nM for the second. The second is the more potent here.

`C=C(OC)C(=O)N1CC2(CCN(C(=O)N(C)[C@H](C(=O)N[C@H]3Cc4nc(cs4)-c4ccc5c(c4)c(c(-c4cccnc4[C@H](C)OC)n5CC)CC(C)(C)COC(=O)[C@@H]4CCCN(N4)C3=O)C(C)C)CC2)C1` (atropisomer, axis not shown) [Example A681] and `C=C(F)C(=O)N1CC2(CCN(C(=O)N(C)[C@H](C(=O)N[C@H]3Cc4nc(cs4)-c4ccc5c(c4)c(c(-c4cccnc4[C@H](C)OC)n5CC)CC(C)(C)COC(=O)[C@@H]4CCCN(N4)C3=O)C(C)C)CC2)C1` (atropisomer, axis not shown) [Example A682] fall in the same range of IC50: 10 to 100 nM for the first, 10 to 100 nM for the second.

Compared with `C=CC(=O)N1CC2(CCN2C(=O)N(C)[C@H](C(=O)N[C@H]2Cc3cccc(c3)-c3ccc4c(c3)c(c(-c3cccnc3[C@H](C)OC)n4CC)CC(C)(C)COC(=O)[C@@H]3CCCN(N3)C2=O)C(C)C)C1` (atropisomer, axis not shown) [Example A684], `C=CC(=O)N1CC[C@H]2[C@@H](C1)CN2C(=O)N(C)[C@H](C(=O)N[C@H]1Cc2nc(cs2)-c2ccc3c(c2)c(c(-c2cccnc2[C@H](C)OC)n3CC)CC(C)(C)COC(=O)[C@@H]2CCCN(N2)C1=O)C(C)C` (atropisomer, axis not shown) [Example A687] is higher in IC50: < 10 nM for the first, 10 to 100 nM for the second. The first is the more potent here.

`C=CC(=O)N1C[C@H]2CN(C(=O)N(C)[C@H](C(=O)N[C@H]3Cc4nc(cs4)-c4ccc5c(c4)c(c(-c4cccnc4[C@H](C)OC)n5CC)CC(C)(C)COC(=O)[C@@H]4CCCN(N4)C3=O)C(C)C)[C@H]2C1` (atropisomer, axis not shown) [Example A686] and `C=CC(=O)N1CCO[C@H]2CN(C(=O)N(C)[C@H](C(=O)N[C@H]3Cc4nc(cs4)-c4ccc5c(c4)c(c(-c4cccnc4[C@H](C)OC)n5CC)CC(C)(C)COC(=O)[C@@H]4CCCN(N4)C3=O)C(C)C)C[C@H]21` (atropisomer, axis not shown) [Example A706] cannot be ordered by IC50: < 10 nM for the first, < 10 nM for the second.

`CCn1c(-c2cccnc2[C@H](C)OC)c2c3cc(ccc31)-c1csc(n1)C[C@H](NC(=O)C[C@@H]1COC3(CN(C(=O)C#CC(C)(C)N(C)C)C3)O1)C(=O)N1CCC[C@H](N1)C(=O)OCC(C)(C)C2` (atropisomer, axis not shown) [Example A691] and `CCn1c(-c2cccnc2[C@H](C)OC)c2c3cc(ccc31)-c1cnc(o1)C[C@H](NC(=O)[C@H](C(C)C)N(C)C(=O)[C@H]1CCN(C(=O)C#CC(C)(C)N(C)C)C1)C(=O)N1CCC[C@H](N1)C(=O)OCC(C)(C)C2` (atropisomer, axis not shown) [Example A692, (3S)-1-(4-(dimethylamino)-4-methylpent-2-ynoyl)-N-((2S)-1-(((6^3S,4S)-1^1-ethyl-1^2-(2-((S)-1-methoxyethyl)pyridin-3-yl)-10,10-dimethyl-5,7-dioxo-6^1,6^2,6^3,6^4,6^5,6^6-hexahydro-1^1H-8-oxa-2(5,2)-oxazola-1(5,3)-indola-6(1,3)-pyridazinacycloundecaphane-4-yl)amino)-3-methyl-1-oxobutan-2-yl)-N-methylpyrrolidine-3-carboxamide] cannot be ordered by IC50: < 10 nM for the first, < 10 nM for the second.

`C=CC(=O)N1CCOC2(CCN(C(=O)N(C)[C@H](C(=O)N[C@H]3Cc4nc(cs4)-c4ccc5c(c4)c(c(-c4cccnc4[C@H](C)OC)n5CC)CC(C)(C)COC(=O)[C@@H]4CCCN(N4)C3=O)C(C)C)CC2)C1` (atropisomer, axis not shown) [Example A695] and `C=CC(=O)N1CCC2(CC1)CCN(C(=O)N(C)[C@H](C(=O)N[C@H]1Cc3nc(cs3)-c3ccc4c(c3)c(c(-c3cccnc3[C@H](C)OC)n4CC)CC(C)(C)COC(=O)[C@@H]3CCCN(N3)C1=O)C(C)C)CC2` (atropisomer, axis not shown) [Example A697] fall in the same range of IC50: 10 to 100 nM for the first, 10 to 100 nM for the second.

`CO[C@@H](C)c1ncccc1-c1c2c3cc(ccc3n1CC(F)(F)F)-c1cnc(o1)C[C@H](NC(=O)[C@H](C(C)C)N(C)C(=O)[C@H]1CCN(C(=O)C#CC(C)(C)N(C)C)C1)C(=O)N1CCC[C@H](N1)C(=O)OCC(C)(C)C2` (atropisomer, axis not shown) [Example A707] was tested, and the IC50 was < 10 nM.
